The values below come from paper PMC10406613, “Endocytic myosin-1 is a force-insensitive, power-generating motor” (The Journal of Cell Biology, 2023).

The target of assay [1] is T1, unphosphorylated Myo5 (actoMyo5) (Saccharomyces cerevisiae, UniProt Q04439). Description: stopped-flow light scattering, ADP release from ADP-saturated actoMyo5 mixed with ATP. As to conditions: ADP dissociation rate constant, 100 µM ADP preincubated with 200 nM actoMyo5, then 2.5 mM ATP, KMg25 buffer pH 7, 20°C. Also on record: motor domain plus both IQ motifs, truncated at Gly763, C-terminal AviTag-TEV-His9 kept; co-expressed with She4 in S. cerevisiae D1074; lambda phosphatase-treated (unphosphorylated at TEDS site S357); Cmd1 light chain in excess; with Calmodulin; Actin, alpha skeletal muscle (rabbit, Oryctolagus cuniculus). Format: binding. The source says: stopped-flow light scattering, ADP release from ADP-saturated actoMyo5 mixed with ATP on unphosphorylated Myo5 (actoMyo5)
T1 sequence (Q04439 whole entry, looked up, the tested form may be a part): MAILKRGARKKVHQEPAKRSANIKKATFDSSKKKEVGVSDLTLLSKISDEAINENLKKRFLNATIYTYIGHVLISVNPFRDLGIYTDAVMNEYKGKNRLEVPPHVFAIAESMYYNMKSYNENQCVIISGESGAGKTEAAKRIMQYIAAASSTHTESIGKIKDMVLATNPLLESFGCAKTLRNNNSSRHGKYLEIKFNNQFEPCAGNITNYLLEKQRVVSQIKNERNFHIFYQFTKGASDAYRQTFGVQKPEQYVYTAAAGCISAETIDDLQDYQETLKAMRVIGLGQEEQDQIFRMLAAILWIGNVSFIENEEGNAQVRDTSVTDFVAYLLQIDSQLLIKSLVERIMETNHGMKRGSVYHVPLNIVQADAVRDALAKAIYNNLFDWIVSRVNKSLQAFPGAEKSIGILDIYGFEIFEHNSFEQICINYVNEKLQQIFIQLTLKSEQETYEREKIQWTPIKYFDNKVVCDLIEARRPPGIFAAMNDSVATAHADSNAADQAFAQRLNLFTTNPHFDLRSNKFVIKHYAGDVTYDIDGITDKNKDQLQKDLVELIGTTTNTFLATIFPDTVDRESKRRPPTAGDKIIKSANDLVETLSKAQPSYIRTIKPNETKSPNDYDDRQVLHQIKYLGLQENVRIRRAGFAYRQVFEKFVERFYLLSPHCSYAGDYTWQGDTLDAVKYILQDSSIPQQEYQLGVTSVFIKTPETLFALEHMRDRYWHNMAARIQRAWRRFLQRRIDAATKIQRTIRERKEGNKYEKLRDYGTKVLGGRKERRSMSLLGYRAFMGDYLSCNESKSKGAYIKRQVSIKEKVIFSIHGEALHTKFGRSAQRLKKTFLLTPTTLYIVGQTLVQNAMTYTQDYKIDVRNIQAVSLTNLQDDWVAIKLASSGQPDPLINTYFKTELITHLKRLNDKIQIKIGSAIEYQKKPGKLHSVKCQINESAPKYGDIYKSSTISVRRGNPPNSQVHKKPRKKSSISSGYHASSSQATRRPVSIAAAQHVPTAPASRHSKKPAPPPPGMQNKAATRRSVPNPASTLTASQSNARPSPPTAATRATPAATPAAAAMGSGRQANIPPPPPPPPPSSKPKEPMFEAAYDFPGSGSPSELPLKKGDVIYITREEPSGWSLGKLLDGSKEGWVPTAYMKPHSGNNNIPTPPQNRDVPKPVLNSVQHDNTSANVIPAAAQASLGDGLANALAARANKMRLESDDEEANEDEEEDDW

In assay [2] the target is T2, phosphorylated Myo5 (actoMyo5) (Saccharomyces cerevisiae, UniProt Q04439). Described as above. The assay is classed as binding. Also on record: motor domain plus both IQ motifs, truncated at Gly763, C-terminal AviTag-TEV-His9 kept; co-expressed with She4 in S. cerevisiae D1074; phosphorylated at TEDS site S357 by Pak1; Cmd1 light chain in excess; with Calmodulin; Actin, alpha skeletal muscle (rabbit, Oryctolagus cuniculus). The following applies: 100 µM ADP preincubated with 200 nM actoMyo5, then 2.5 mM ATP, KMg25 buffer pH 7, 20°C, phosphorylated at S357. From the text:
stopped-flow light scattering, ADP release from ADP-saturated actoMyo5 mixed with ATP on phosphorylated Myo5 (actoMyo5)

Assay [3] addresses T1, unphosphorylated Myo5 (actoMyo5). Description: biochemical. From the text:
stopped-flow light scattering, ATP-induced dissociation of actoMyo5, hyperbolic fit on unphosphorylated Myo5 (actoMyo5)

The target of assay [4] is T2, phosphorylated Myo5 (actoMyo5). As to conditions: apparent second-order rate constant of ATP binding to nucleotide-free actoMyo5 (actin-bound); MgATP, KMg25 buffer pH 7, 20°C; phosphorylated at S357. The source says: stopped-flow light scattering, ATP-induced dissociation of actoMyo5, linear fit on phosphorylated Myo5 (actoMyo5)

T2 sequence (Q04439 whole entry, looked up, the tested form may be a part): as above

For `Nc1ncnc2c1ncn2[C@@H]1O[C@H](COP(=O)(O)OP(=O)(O)O)[C@@H](O)[C@H]1O` [ADP], the “ADP release rate constant” value in assay [1] was 107 (±5.9) s^−1. Also, the “ADP dissociation rate constant” value in assay [2] turned out to be 74 ± 2.0 s⁻¹.

Turning to `Nc1ncnc2c1ncn2[C@@H]1O[C@H](COP(=O)(O)OP(=O)(O)OP(=O)(O)O)[C@@H](O)[C@H]1O` [ATP], the Kd (usually the free concentration of one partner at which half of the binding sites on the other are occupied at equilibrium, for simple one-to-one binding) in assay [3] is 167 µM. The “Phosphorylated Myo5” value in assay [4] is listed as 0.39 (±0.017) µM^−1 s^−1.
